Results: patent publication US8987474B2 (University of South Florida, priority 2006, dated 2015)
Where two headings read alike, the source gives them in different places.

What was measured:
Shp2 = Shp2 (Homo sapiens (Human), UniProt Q06124); test: PTP activity assay (DiFMUP substrate) with GST-Shp2; type: biochemical
Excerpt: (§1) All constructs were verified by DNA sequencing.
(§2) Recombinant DEP1 was from Abcam.

Shp1 [1] = molecular target: T1, Shp1 (Homo sapiens (Human), UniProt P29350)
Shp1 [2] = molecular target: T1, Shp1; test: biochemical
DEP1 = DEP1 (Homo sapiens (Human), UniProt Q12913); test: PTP activity assay (DiFMUP substrate) with recombinant DEP1; type: biochemical; settings: DEP1, in vitro
Sequence of DEP1 (Q12913 36-1337): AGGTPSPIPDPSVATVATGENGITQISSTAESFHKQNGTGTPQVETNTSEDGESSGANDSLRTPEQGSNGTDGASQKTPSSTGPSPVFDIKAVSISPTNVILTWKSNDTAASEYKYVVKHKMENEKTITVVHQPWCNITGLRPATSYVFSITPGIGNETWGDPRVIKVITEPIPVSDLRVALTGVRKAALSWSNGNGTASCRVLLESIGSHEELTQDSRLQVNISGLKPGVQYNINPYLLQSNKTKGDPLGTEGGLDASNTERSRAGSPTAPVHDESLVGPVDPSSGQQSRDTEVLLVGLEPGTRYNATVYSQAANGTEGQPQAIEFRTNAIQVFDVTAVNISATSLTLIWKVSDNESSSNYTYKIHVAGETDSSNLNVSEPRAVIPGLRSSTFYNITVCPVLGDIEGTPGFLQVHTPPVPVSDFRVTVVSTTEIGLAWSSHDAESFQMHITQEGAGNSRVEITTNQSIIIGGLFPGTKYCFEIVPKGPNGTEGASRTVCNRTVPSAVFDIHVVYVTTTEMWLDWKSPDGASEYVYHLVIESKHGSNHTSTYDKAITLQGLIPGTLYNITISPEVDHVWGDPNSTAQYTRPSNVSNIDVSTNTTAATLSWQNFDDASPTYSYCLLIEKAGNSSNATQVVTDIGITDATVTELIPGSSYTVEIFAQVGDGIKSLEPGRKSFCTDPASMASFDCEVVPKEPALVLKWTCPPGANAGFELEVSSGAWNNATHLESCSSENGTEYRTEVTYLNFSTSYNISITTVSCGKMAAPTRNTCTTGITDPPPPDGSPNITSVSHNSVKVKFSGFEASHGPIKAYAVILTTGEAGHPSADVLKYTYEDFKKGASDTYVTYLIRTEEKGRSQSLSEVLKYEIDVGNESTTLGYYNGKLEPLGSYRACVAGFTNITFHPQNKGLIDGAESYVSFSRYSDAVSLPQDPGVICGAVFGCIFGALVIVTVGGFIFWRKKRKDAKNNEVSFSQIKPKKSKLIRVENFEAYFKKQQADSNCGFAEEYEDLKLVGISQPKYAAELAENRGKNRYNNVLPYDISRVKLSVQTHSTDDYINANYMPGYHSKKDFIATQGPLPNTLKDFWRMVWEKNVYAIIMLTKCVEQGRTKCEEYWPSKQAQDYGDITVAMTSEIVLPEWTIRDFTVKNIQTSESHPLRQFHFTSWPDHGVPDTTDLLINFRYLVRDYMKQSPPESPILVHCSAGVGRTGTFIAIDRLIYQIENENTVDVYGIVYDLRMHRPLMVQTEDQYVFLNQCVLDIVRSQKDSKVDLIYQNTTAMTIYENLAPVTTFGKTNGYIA

[3] = test system: Gab1 tyrosine phosphorylation and Gab1-Shp2 association; test: EGF-induced Gab1 tyrosine phosphorylation and Gab1-Shp2 association in HEK293 cells; type: cell-based; settings: 20 μM, 3 h, EGF 5 ng/ml 5 min
Protocol: . Gab1 was immunoprecipitated from cell lysate supernatants. Immunoprecipitates were analyzed by immunoblotting with antibodies to phosphotyrosine (pY), Gab1, or Shp2. An aliquot of each cell lysate supernatant (30 μg) was also examined by immunoblotting with an antibody to Shp2 (bottom panel). pY-Gab1, tyrosine-phosphorylated Gab1.
Shp2 is activated in EGF-stimulated cells by binding to tyrosine-phosphorylated Gab1 (and Gab2 if it is also expressed) (Cunnick et al., 2001). […] . […] . […] .

LAR = LAR (Homo sapiens (Human), UniProt P10586); test: PTP activity assay (DiFMUP substrate) with LAR D1 domain; type: biochemical; settings: in vitro
Sequence of LAR (P10586 1352-1607): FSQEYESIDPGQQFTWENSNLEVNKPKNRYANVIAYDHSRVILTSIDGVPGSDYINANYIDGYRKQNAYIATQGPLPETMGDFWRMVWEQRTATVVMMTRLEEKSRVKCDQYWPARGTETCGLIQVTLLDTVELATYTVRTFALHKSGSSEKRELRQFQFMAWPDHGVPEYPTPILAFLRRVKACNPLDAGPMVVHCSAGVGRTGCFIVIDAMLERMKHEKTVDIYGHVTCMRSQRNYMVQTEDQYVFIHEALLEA

CD45 = CD45 (Homo sapiens (Human), UniProt P08575); test: PTP activity assay (DiFMUP substrate) with recombinant CD45; type: biochemical; settings: CD45, in vitro
Sequence of CD45 (P08575 609-1306): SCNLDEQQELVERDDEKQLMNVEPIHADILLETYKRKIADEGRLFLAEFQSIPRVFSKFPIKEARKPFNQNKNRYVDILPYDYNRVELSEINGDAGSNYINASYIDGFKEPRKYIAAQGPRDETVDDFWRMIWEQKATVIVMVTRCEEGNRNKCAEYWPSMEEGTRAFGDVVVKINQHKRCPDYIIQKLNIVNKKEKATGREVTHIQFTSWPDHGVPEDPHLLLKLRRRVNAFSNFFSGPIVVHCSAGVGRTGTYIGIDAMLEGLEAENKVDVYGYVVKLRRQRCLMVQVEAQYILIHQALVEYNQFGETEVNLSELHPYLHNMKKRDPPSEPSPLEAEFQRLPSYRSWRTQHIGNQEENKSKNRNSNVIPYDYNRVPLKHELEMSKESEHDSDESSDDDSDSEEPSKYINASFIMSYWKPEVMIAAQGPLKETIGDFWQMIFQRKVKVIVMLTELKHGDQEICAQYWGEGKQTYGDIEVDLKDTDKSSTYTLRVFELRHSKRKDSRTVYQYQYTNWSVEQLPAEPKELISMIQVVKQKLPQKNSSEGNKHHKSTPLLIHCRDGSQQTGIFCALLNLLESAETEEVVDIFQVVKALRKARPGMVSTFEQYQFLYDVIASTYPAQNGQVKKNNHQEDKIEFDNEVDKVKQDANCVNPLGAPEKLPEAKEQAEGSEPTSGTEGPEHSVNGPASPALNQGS

PTP1B = PTP1B (Homo sapiens (Human), UniProt P18031); test: PTP activity assay (DiFMUP substrate) with GST-PTP1B; type: biochemical; settings: in vitro
Sequence of PTP1B (P18031 whole entry): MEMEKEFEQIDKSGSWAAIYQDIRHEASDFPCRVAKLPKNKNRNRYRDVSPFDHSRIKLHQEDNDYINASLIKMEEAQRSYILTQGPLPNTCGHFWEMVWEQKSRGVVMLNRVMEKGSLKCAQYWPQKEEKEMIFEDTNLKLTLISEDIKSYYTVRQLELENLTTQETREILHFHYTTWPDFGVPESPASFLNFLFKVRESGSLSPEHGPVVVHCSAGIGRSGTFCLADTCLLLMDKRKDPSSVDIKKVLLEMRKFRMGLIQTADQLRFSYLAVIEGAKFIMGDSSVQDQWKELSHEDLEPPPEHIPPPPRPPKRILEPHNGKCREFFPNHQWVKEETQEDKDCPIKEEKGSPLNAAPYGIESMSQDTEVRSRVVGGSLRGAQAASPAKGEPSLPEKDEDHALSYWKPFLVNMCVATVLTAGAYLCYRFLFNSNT
Excerpt: as §1, §2

T1 sequence (P29350 203-595): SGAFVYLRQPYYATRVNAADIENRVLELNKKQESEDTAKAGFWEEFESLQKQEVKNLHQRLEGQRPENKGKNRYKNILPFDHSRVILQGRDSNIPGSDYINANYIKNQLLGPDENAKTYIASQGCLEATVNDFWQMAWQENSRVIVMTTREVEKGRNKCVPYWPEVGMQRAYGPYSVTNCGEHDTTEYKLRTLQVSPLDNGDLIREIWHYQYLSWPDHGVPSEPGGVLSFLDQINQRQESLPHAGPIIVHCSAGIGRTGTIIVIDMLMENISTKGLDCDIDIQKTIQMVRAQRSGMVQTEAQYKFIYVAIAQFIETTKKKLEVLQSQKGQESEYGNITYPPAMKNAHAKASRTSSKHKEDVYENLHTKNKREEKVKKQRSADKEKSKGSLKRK
Sequence of Shp2 (Q06124 205-593): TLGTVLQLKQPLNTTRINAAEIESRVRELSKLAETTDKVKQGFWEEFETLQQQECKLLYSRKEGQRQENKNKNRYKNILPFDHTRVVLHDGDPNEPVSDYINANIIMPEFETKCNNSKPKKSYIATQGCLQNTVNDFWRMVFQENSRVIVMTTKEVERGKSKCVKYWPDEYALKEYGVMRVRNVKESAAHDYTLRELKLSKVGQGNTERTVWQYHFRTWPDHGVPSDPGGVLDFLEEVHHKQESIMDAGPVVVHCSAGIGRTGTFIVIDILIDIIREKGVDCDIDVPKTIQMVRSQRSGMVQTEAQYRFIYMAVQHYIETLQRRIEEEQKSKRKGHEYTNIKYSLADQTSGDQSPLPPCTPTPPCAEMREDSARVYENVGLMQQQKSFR

Structure (SMILES) | % PTP activity (Shp2; at 20 μM) | IC50 (Shp1 [1]) | IC50 (Shp1 [2]) | % PTP activity (Shp2; concentration not given) | other results
O=C1Nc2ccc(C(=O)NCc3ccc(Cl)cc3)cc2/C1=N/Nc1cccc(C(=O)O)c1 [HL2-070-5] | 62.32% (1) at 20 μM | 19.4 µM |  |  | 
CC(C)NS(=O)(=O)c1ccc2c(c1)/C(=N/Nc1ccccc1C(=O)O)C(=O)N2 [RPM186, 2-[N′-(5-Isopropylsulfamoyl-2-oxo-1,2-dihydro-indol-3-ylidene)-hydrazino]benzoic acid] | 0.8 ± 1% (3) at 20 μM |  | 10.8 µM |  | 
CC(C)NS(=O)(=O)c1ccc2c(c1)/C(=N/Nc1ccccc1[N+](=O)[O-])C(=O)N2 [RPM169, 3-[(2-Nitrophenyl)hydrazono]-2-oxo-2,3-dihydro-1H-indole-5-sulfonic acid isopropylamide] |  |  | 110 µM | 8 + 3% (12) | 
NS(=O)(=O)c1ccc2c(c1)/C(=N/Nc1ccccc1[N+](=O)[O-])C(=O)N2 [RPM134, 3-[(2-Nitrophenyl)hydrazono]-2-oxo-2,3-dihydro-1H-indole-5-sulfonicamide] |  |  | 93.5 µM | 13 ± 5% (12) | 
O=C1Nc2ccc(C(=O)O)cc2/C1=N/Nc1cccc(C(=O)O)c1 [HL2-052-3] | 56.94% (1) at 20 μM | 72.5 µM |  |  | 
O=C1Nc2ccc(S(=O)(=O)O)cc2/C1=N/Nc1ccccc1[N+](=O)[O-] [HL1-056] |  | 68.1 µM |  | 86 ± 3% (6) | 
O=C1Nc2ccc(C(=O)O)cc2/C1=N/Nc1ccccc1C(=O)O [HL2-052-2] | 46 ± 3% (2) at 20 μM |  | 21.4 µM |  | 
O=C1Nc2ccc(S(=O)(=O)NCc3ccc(Cl)cc3)cc2/C1=N/Nc1ccccc1[N+](=O)[O-] [RPM139, 3-[(2-Nitrophenyl)hydrazono]-2-oxo-2,3-dihydro-1H-indole-5-sulfonic acid 4-chlorobenzylamide] |  |  | 42.2 µM | 12 ± 5% (12) | 
CC(C)NS(=O)(=O)c1ccc2c(c1)/C(=N/Nc1cccc(C(=O)O)c1)C(=O)N2 [RPM297, 3-[N′-(5-Isopropylsulfamoyl-2-oxo-1,2-dihydro-indol-3-ylidene)hydrazino]benzoic acid] | 54 ± 8% (2) At 20 μM | 15.7 µM |  |  | 
O=S(=O)(O)c1ccc2cc(/N=N\c3cc(S(=O)(=O)O)c4cccnc4c3O)ccc2c1 [NSC-87877, 8-hydroxy-7-(6-sulfonaphthalen-2-yl)diazenyl-quinoline-5-sulfonic acid] |  |  | 0.355 µM |  | IC50 (DEP1): 65.6 ± 4.12 µM; EGF-stimulated Gab1 tyrosine phosphorylation [3]: did not inhibit; binding of Shp2 to Gab1 [3]: did not inhibit; IC50 (LAR): 151 ± 9.08 µM; IC50 (CD45): 84.5 ± 16.2 µM; IC50 (PTP1B): 1.69 ± 0.407 µM
CN(C)CCNS(=O)(=O)c1ccc2c(c1)/C(=N/Nc1ccccc1[N+](=O)[O-])C(=O)N2 [RPM146, 3-[(2-Nitrophenyl)hydrazono]-2-oxo-2,3-dihydro-1H-indole-5-sulfonic acid (2-dimethylaminoethyl)amide] |  |  |  | 57 ± 6% (6) | 
